From US20110086759A1, “CHEMICAL COMPOUNDS” (SYNGENTA CROP PROTECTION, INC., priority 2007, published 2011)

Tests used:
Type in all cases: in vivo
[1] = test system: Solanum nigrum (SOLNI); assay: Post-emergence biological efficacy, glasshouse pot test; conditions: 312 h, Rate 1,000 g/ha, post-emergence spray, evaluated after 13 days (100=total damage to plant; 0=no damage to plant), read-out: Percentage damage caused to weed species, post-emergence, SOLNI
Procedure, shortened: (§1)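 Scored 13 days after spraying on a 0 (no damage) to 100 (total damage) scale. Treatment was a post-emergence spray at 1000 or 250 g/ha, from acetone/water 50:50 plus 0.5% Tween 20, onto 8-day-old plants in soil pots. Growth at 24/16° C, 14 h photoperiod, 65% humidity, watered twice daily.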

[2] = test system: Setaria faberi (SETFA); assay: as above; conditions: 312 h, Rate 1,000 g/ha, post-emergence spray, evaluated after 13 days (100=total damage to plant; 0=no damage to plant), read-out: Percentage damage caused to weed species, post-emergence, SETFA
Procedure, shortened: as §1

[3] = test system: Echinochloa crus-galli (ECHCG); assay: as above; conditions: 312 h, Rate 1,000 g/ha, post-emergence spray, evaluated after 13 days (100=total damage to plant; 0=no damage to plant), read-out: Percentage damage caused to weed species, post-emergence, ECHCG
Procedure, shortened: as §1

[4] = test system: Alopecurus myosuroides (ALOMY); assay: as above; conditions: 312 h, Rate 1,000 g/ha, post-emergence spray, evaluated after 13 days (100=total damage to plant; 0=no damage to plant), read-out: Percentage damage caused to weed species, post-emergence, ALOMY
Procedure, shortened: as §1

[5] = test system: Amaranthus retoflexus (AMARE); assay: as above; conditions: Amaranthus retroflexus, 312 h; Rate 1,000 g/ha; post-emergence spray; evaluated after 13 days (100=total damage to plant; 0=no damage to plant); read-out: Percentage damage caused to weed species, post-emergence, AMARE
Procedure, shortened: as §1

[6] = test system: Ipomea hederaceae (IPOHE); assay: as above; conditions: Ipomoea hederacea, 312 h; Rate 1,000 g/ha; post-emergence spray; evaluated after 13 days (100=total damage to plant; 0=no damage to plant); read-out: Percentage damage caused to weed species, post-emergence, IPOHE
Procedure, shortened: as §1

[7] = test system: Solanum nigrum (SOLNI); assay: Pre-emergence biological efficacy, glasshouse pot test; conditions: 312 h, pre-emergence, rate 1,000 g/ha, evaluated after 13 days (100=total damage to plant; 0=no damage), read-out: Percentage damage caused to weed species, SOLNI
Procedure, shortened: (§2)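 Sow seeds in pots of standard soil; after one day in the glasshouse, spray test compound (1000 or 250 g/ha) in aqueous acetone/water with 0.5% Tween 20. Grow 13 days at 24/16 °C day/night, then score damage from 0 to 100.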

[8] = test system: Setaria faberi (SETFA); assay: as above; conditions: 312 h, pre-emergence, rate 1,000 g/ha, evaluated after 13 days (100=total damage to plant; 0=no damage), read-out: Percentage damage caused to weed species, SETFA
Procedure, shortened: as §2

[9] = test system: Echinochloa crus-galli (ECHCG); assay: as above; conditions: 312 h, pre-emergence, rate 1,000 g/ha, evaluated after 13 days (100=total damage to plant; 0=no damage), read-out: Percentage damage caused to weed species, ECHCG
Procedure, shortened: as §2

[10] = test system: Alopecurus myosuroides (ALOMY); assay: as above; conditions: 312 h, pre-emergence, rate 1,000 g/ha, evaluated after 13 days (100=total damage to plant; 0=no damage), read-out: Percentage damage caused to weed species, ALOMY
Procedure, shortened: as §2

[11] = test system: Amaranthus retoflexus (AMARE); assay: as above; conditions: Amaranthus retroflexus, 312 h; pre-emergence, rate 1,000 g/ha, evaluated after 13 days (100=total damage to plant; 0=no damage); read-out: Percentage damage caused to weed species, AMARE
Procedure, shortened: as §2

[12] = test system: Ipomea hederaceae (IPOHE); assay: as above; conditions: Ipomoea hederacea, 312 h; pre-emergence, rate 1,000 g/ha, evaluated after 13 days (100=total damage to plant; 0=no damage); read-out: Percentage damage caused to weed species, IPOHE
Procedure, shortened: as §2

SMILES	pest or weed control at 1000 g/ha [1]	pest or weed control at 1000 g/ha [2]	pest or weed control at 1000 g/ha [3]	pest or weed control at 1000 g/ha [4]	pest or weed control at 1000 g/ha [5]	pest or weed control at 1000 g/ha [6]	pest or weed control at 1000 g/ha [7]	pest or weed control at 1000 g/ha [8]	pest or weed control at 1000 g/ha [9]	pest or weed control at 1000 g/ha [10]	pest or weed control at 1000 g/ha [11]	pest or weed control at 1000 g/ha [12]
COC(=O)c1nc(C2CC2)nc(N(C)Cc2cccc(OC)c2)c1Cl [Compound 5-79, 5-Chloro-2-cyclopropyl-6-methoxycarbonyl-4-[N-(3-methoxy-phenylmethyl)-N-methyl-amino]-pyrimidine]	80%	30%	0%	0%	100%	70%	40%	0%	0%	0%	70%	50%
COC(=O)c1nc(C2CC2)nc(N(C)Cc2ccc(OC)cc2)c1Cl [Compound 5-80, 5-Chloro-2-cyclopropyl-6-methoxycarbonyl-4-[N-(4-methoxy-phenyl)methyl-N-methyl-amino]-pyrimidine]	100%	80%	50%	20%	100%	100%	30%	20%	0%	0%	100%	60%
COC(=O)c1nc(C2CC2)nc(N(C)Cc2ccc(N)cc2)c1Cl [Compound 5-86, 4-[N-(4-aminophenylmethyl)-N-methyl-amino]-5-chloro-2-cyclopropyl-6-methoxycarbonyl-pyrimidine]	90%	90%	70%	40%	100%	100%	100%	30%	50%	40%	100%	100%
COC(=O)c1nc(C2CC2)nc(N(C)Cc2ccccc2[N+](=O)[O-])c1Cl [Compound 5-90, 5-Chloro-2-cyclopropyl-6-methoxycarbonyl-4-[N-methyl-N-(2-nitrophenylmethyl)-amino]pyrimidine]	90%	90%	70%	50%	100%	100%	90%	30%	30%	20%	100%	90%
COC(=O)c1nc(C2CC2)nc(N(C)Cc2cccc([N+](=O)[O-])c2)c1Cl [Compound 5-91, 5-Chloro-2-cyclopropyl-6-methoxycarbonyl-4-[N-methyl-N-(3-nitrophenylmethyl)-amino]pyrimidine]	80%	40%	30%	20%	100%	80%	60%	10%	0%	10%	70%	30%
COC(=O)c1nc(C2CC2)nc(N(C)Cc2ccc([N+](=O)[O-])cc2)c1Cl [Compound 5-92, 5-Chloro-2-cyclopropyl-6-methoxycarbonyl-4-[N-methyl-N-(4-nitrophenylmethyl)-amino]-pyrimidine]	80%	60%	40%	50%	100%	100%	60%	10%	10%	20%	90%	70%
COC(=O)c1nc(C2CC2)nc(N(C)Cc2c(Cl)cccc2Cl)c1Cl [Compound 5-104, 5-Chloro-2-cyclopropyl-4-[N-(2,6-dichlorophenyl-methyl)-N-methyl-amino]-6-methoxy-carbonylpyrimidine]	60%	20%	0%	0%	60%	70%	10%	0%	0%	0%	30%	40%
COC(=O)c1nc(C2CC2)nc(N(C)Cc2ccc(Cl)c(Cl)c2)c1Cl [Compound 5-105, 5-Chloro-2-cyclopropyl-4-[N-(3,4-dichlorophenyl-methyl)-N-methyl-amino]-6-methoxy-carbonylpyrimidine]	80%	60%	40%	30%	100%	80%	60%	30%	10%	10%	80%	60%
COC(=O)c1nc(C2CC2)nc(N(C)Cc2cc(OC)cc(OC)c2)c1Cl [Compound 5-113, 5-Chloro-2-cyclopropyl-4-[N-(3,5-dimethoxy-phenylmethyl)-N-methyl-amino]-6-methoxycarbonyl-pyrimidine]	70%	30%	10%	10%	80%	70%	10%	0%	0%	0%	70%	60%
CCOc1ccc(CN(C)c2nc(C3CC3)nc(C(=O)OC)c2Cl)cc1OCC [Compound 5-114, 5-Chloro-2-cyclopropyl-4-[N-(3,4-diethoxy-phenylmethyl)-N-methyl-amino]-6-methoxycarbonyl-pyrimidine]	80%	40%	20%	10%	100%	70%	20%	20%	0%	0%	70%	40%
